The values that follow come from patent US12570536B2, “Ammonia synthesis methods and systems” (President and Fellows of Harvard College, priority 2016, dated 2026).

SMILES strings stand for the structures.

One assay addresses nitrogenase. Particulars: competitive inhibition of nitrogenase; cited from earlier work.
The test system of the next assay is X. autotrophicus. As to the kind of experiment: Extracellular NH3 production by the CoPi|Co-P|X. autotrophicus hybrid device after addition of a GS inhibitor. The format is cell-based, Xanthobacter autotrophicus. From the text: A reactor used in the experiments included a biocompatible water splitting catalyst system including a cobalt-phosphorous (Co—P) alloy cathode for the hydrogen evolution reaction (HER) and a cobalt phosphate (CoPi) anode for the oxygen evolution reaction (OER). This system enabled the use of a low driving voltage (Eappl) while producing the desired hydrogen for use in producing ammonia. Specifically, NH3 synthesis from N2 and H2O was accomplished using the water splitting system and driving the N2 reduction reaction within H2-oxidizing, autotrophic microorganisms. In this case, Xanthobacter autotrophicus (X. autotrophicus) was used. X. autotrophicus is a gram-negative bacterium that belongs to a small group of diazotrophs, which at micro-aerobic condition (less than about 5% O2) can use H2 as their sole energy source to fix CO2 and N2 into biomass. Therefore, in this experimental setup, electrochemical water splitting generated H2 as the biological energy source and in the same reactor X. autotrophicus acted as the room-temperature N2 reduction reaction catalyst to convert H2 and N2 into NH3.
The electrodes included a Co—P cathode for the hydrogen evolution reaction and a CoPi anode for the oxygen evolution reaction. A gas mixture including 2% O2, 20% CO2, and 78% N2 was bubbled through the solution at a flow rate of greater than or equal to 5 mL/min to maintain a micro-aerobic environment.
At the beginning of each experiment, X. autotrophicus was inoculated into the organic-free minimal medium without any nitrogen supplement. A constant driving voltage (Eappl=3.0 V) was applied to the CoPi|Co—P catalyst system, and aliquots were periodically sampled for the quantification of biomass (optical density at 600 nm, OD600) as well as fixed nitrogen (colorimetric assay).
The hybrid device is capable of excreting synthesized NH3 into an extracellular medium. Previous biochemical assays and genome sequencing on this strain indicate that the NH3 generated from nitrogenase is incorporated into biomass via a two-step process mediated by glutamine synthetase (GS) and glutamate synthase (GOGAT) (FIGS. 1 and 5). If the functionality of this NH3 assimilation pathway is disrupted, direct production of an extracellular NH3 fertilizer solution is realized. It has been reported that GS inhibitors can be used for NH3 secretion in sugar-fementating diazotrophs. As a proof of principle, glufosinate (PPT), a specific GS inhibitor commercially used as herbicide, was used to block the NH3 assimilation pathway and allow the synthesized NH3 to passively diffuse out into the extracellular medium (pathway 2 in FIG. 1, and FIG. 5). After the addition of PPT, the biomass of X. autotrophicus stagnated, while Ntotal and the concentration of free NH3 in the solution (NNH3) increased (FIG. 6). […]

Setting [1] is: end of experiments, after PPT addition, n=3.

Turning to `[HH]` [H2], the “inhibition constant Kis(D2)” value at nitrogenase is given as roughly 11 kPa.

For `CP(=O)(O)CCC(N)C(=O)O` (centres unmarked) [PPT, glufosinate], in the assay on X. autotrophicus (after the addition of PPT, FIG. 6), the “biomass of X. autotrophicus after addition” value is “stagnated”. In the assay with X. autotrophicus (end of experiments, after PPT addition), the “concentration of free NH3 in the solution (NNH3)” value is roughly 0.8 mM. Besides, in the assay with X. autotrophicus (setting [1]), the “accumulated Ntotal” value was determined as 47 ± 3 mg/L and the “concentration of free NH3 in the solution (NNH3)” value is 11 ± 2 mg/L.
